Measurements reported in patent US6974885B2, “Method for isolating pharmaceutically exploitable etidronate disodium” (Schering AG, priority 2000, dated 2005).
Structures can show the parent of a compound that is named as a salt.

Key:
[1] = Particle size analysis (RETSCH screen analysis); assay type: physicochemical; settings: for particle size distribution, fraction 0.1-0.2 mm / particle size distribution, fraction 0.1 mm / particle size distribution, fraction 0.2-0.5 mm / particle size distribution, fraction 0.5-0.8 mm / particle size distribution, fraction 0.8-1.0 mm / particle size distribution, fraction 1.0 mm: end product; for particle size distribution, fraction 0.1-0.2 mm: screen fraction 0.1-0.2 mm; for particle size distribution, fraction 0.1 mm: screen fraction 0.1 mm; for particle size distribution, fraction 0.2-0.5 mm: screen fraction 0.2-0.5 mm; for particle size distribution, fraction 0.5-0.8 mm: screen fraction 0.5-0.8 mm; for particle size distribution, fraction 0.8-1.0 mm: screen fraction 0.8-1.0 mm; for particle size distribution, fraction 1.0 mm: screen fraction 1.0 mm
Excerpt: A RETSCH screen analysis system was used.

[2] = Bulk density determination (graduated cylinder, unshaken); assay type: physicochemical; settings: end product
Experimental: Bulk Density Determination Bulk density was determined by means of a graduated cylinder (unshaken).

[3] = cited from earlier work

Row | Compound | particle size distribution, fraction 0.1-0.2 mm [1] [%] | particle size distribution, fraction 0.1 mm [1] [%] | particle size distribution, fraction 0.2-0.5 mm [1] [%] | particle size distribution, fraction 0.5-0.8 mm [1] [%] | particle size distribution, fraction 0.8-1.0 mm [1] [%] | particle size distribution, fraction 1.0 mm [1] [%] | bulk density [2] [g/mL] | particles <0.1 mm ([1]; maximum share of all particles) [wt. %] | particles >1 mm ([1]; maximum share of all particles) [wt. %] | solubility in organic solvents ([3]; all organic solvents) | water solubility ([3]; water)
1 | CC(O)(P(=O)(O)O)P(=O)(O)O [Example 1, etidronate disodium] | 23.8 | 0.07 | 27.3 | 46.2 | 2.16 | 0.47 | 0.48 | – | – | – | –
2 | CC(O)(P(=O)(O)O)P(=O)(O)O [Example 2, etidronate disodium] | 0.07 | 0.0 | 19.7 | 54.9 | 15.6 | 9.71 | 0.51 | – | – | – | –
3 | CC(O)(P(=O)(O)O)P(=O)(O)O [etidronate disodium, disodium salt of hydroxyethane-1,1-diphosphonicacid] | – | – | – | – | – | – | 0.4 to 0.6 | ≤ 5 | ≤ 10 | nearly insoluble | high water solubility
